Data taken from US5747448A, “Derivatives of cyclodepsipeptide PF 1022” (Meiji Seika Kaisha, Ltd., priority 1993, dated 1998).
Like-named read-outs stand apart in the source and are kept apart here.

Experiments:
[1] = tested on: Nippostrongylus brasillensis; assay: Anthelmintic effects on a rat intestinal nematode (N. brasillensis-infected rats); format: in vivo; details: male Wistar rats; for Number of remaining worms (average value ± SD): 10 mg/kg p.o. 7 days after inoculation, autopsy 10 days after inoculation; for % Effectiveness: 10 mg/kg p.o., compared with infected control group
Description: Anthelmintic effects of certain PF1022 derivatives on a rat intestinal nematode were tested in accordance with the following method.
Sixteen male Wistar rats were divided into eight groups (two rats per group), and about 2,000 larval worms of Nippostrongylus brasillensis were hypodermically inoculated per rat. Seven days after the inoculation, PF1022, PF1022E, PF1022-002, PF1022-003, PF1022-209, PF1022-218 and PF1022-219 were, as test substances, forcedly administered p.o. to the rats in the groups, respectively, in an amount of 10 mg/kg per rat. Upon administration, each test substance (8 mg) was dissolved in 0.2 ml of dimethyl sulfoxide and then, the resultant solution was diluted with distilled water to give a 2 ml suspension. Ten days after the inoculation,the rats were each subjected to autopsy and imaginal worms parasitic on the small intestines were counted.
As the test results, the average of remaining worms in each of the eight groups and the percent effectiveness of the test substance in each group as compared with that of the infected control group are shown in Table 4.

[2] = tested on: Trichostrongylus colubriformis; assay: In vivo Anthelmintic Activity Test on Nematodes in sheep (egg excretion); design: key: "0" when there were no anthelmintic activities; "2" when excretion of parasite's eggs was observed; "3" when excretion of parasite's eggs stopped, that is, parasitic worms were removed completely; details: parasitic worms T, oral gelatin capsule, 0.5 mg/kg
Source text: (§1) Test 2 In vivo Anthelmintic Activity Test on Nematodes To each sheep which had artificially been infected with Trichostrongylus colubriformis (hereinafter abbreviated as "T") and Haemonchus contortus (hereinafter abbreviated as […]), respectively, a test substance weighed in a dose accurately calculated from the weight […] of the sheep was orally administered in the form of a gelatin capsule. The number of parasite's eggs excreted with feces from the sheep was counted quantitatively before and after the administration so that the degree of anthelmintic effects was determined. The anthelmintic effects are evaluated by rated numeral 0, 1, 2 or 3. The anthelmintic effects are rated "0" when there were no anthelmintic activities, "2" when excretion of parasite's eggs was observed, and "3" when excretion of parasite's eggs stopped, that is, parasitic worms were removed completely.

[3] = tested on: Haemonchus contortus; assay: as above; design: key: "0" when there were no anthelmintic activities; "2" when excretion of parasite's eggs was observed; "3" when excretion of parasite's eggs stopped, that is, parasitic worms were removed completely; details: parasitic worms H, oral gelatin capsule
Source text: as §1

[4] = tested on: fowl roundworms; assay: Fowl Roundworm Eliminating Test; format: in vivo; details: infected fowls, worms counted to day 7
Description: Test 1 Fowl Roundworm Eliminating Test Fowls (three fowls per group), which had been artificially infected with fowl roundworms and whose infection therewith had been confirmed by scatoscopy, were used as experimental animals. Upon administration of each test substance, the test substance weighed in a dose (mg) accurately calculated on the basis of the body weight (kg) of each fowl was suspended in carboxymethylcellulose-containing water, and the resulting suspension was administered orally as a single dose unit using a stomach tube. After the administration, the worms eliminated from the fowls were counted daily. Seven days after the administration, the fowl was sacrificed and autopsied and the worms remaining in its intestinal tract were counted. The percent elimination was calculated in accordance with the following calculation equation: [formula] Each test substance is indicated by the corresponding substance code name shown above in Table 1.

[5] = amide bond, 24-membered ring, THF/DMF

CC(C)C[C@H]1C(=O)O[C@H](Cc2ccccc2)C(=O)N(C)[C@@H](CC(C)C)C(=O)O[C@H](C)C(=O)N(C)[C@@H](CC(C)C)C(=O)O[C@H](Cc2ccccc2)C(=O)N(C)[C@@H](CC(C)C)C(=O)O[C@H](C)C(=O)N1C [PF1022, Cyclo-(L-MeLeu-D-Lac-L-MeLeu-D-PhLac-L-MeLeu-D-Lac-L-MeLeu-D-PhLac), reference compound]
Number of remaining worms (average value ± SD) [1]: 403 ± 32.5
% Effectiveness ([1]; 10 mg/kg): 80%
% Effectiveness ([1]; listed as PF 1022, 10 mg/kg): 80.2%
Degree of effects [2]: 3
Degree of effects ([3]; 0.05 mg/kg): 3
% Elimination ([4]; single oral dose 0.5 mg/kg): 50-70%
% Elimination ([4]; single oral dose 1.0 mg/kg): 60-86%
% Elimination ([4]; single oral dose 2.0 mg/kg): 100%

CC(C)C[C@H]1OC(=O)[C@H](CC(C)C)N(C)C(=O)[C@@H](C)OC(=O)[C@H](CC(C)C)N(C)C(=O)[C@@H](Cc2ccccc2)OC(=O)[C@H](CC(C)C)N(C)C(=O)[C@@H](C)OC(=O)[C@H](CC(C)C)N(C)C1=O [PF1022-003, cyclo-(-L-MeLeu-D-Lac-L-MeLeu-D-PhLac-L-MeLeu-D-Lac-L-MeLeu-D-LEUA-)]
Number of remaining worms (average value ± SD) [1]: 689 ± 48.1
% Effectiveness [1]: 66.1%
ring closure, isolated yield ([5]; from H-MeLeu-dLEUA-MeLeu-dLac-MeLeu-dPhLac-MeLeu-dLac-OH, EDCI.HCl/HOBt/NMM/KCl/CsCl, 3 steps): 44%
% Elimination ([4]; single oral dose 10 mg/kg): 76%

CC(C)CC1C(=O)OC(Cc2ccc(OCc3ccccc3)cc2)C(=O)N(C)C(CC(C)C)C(=O)OC(C)C(=O)N(C)C(CC(C)C)C(=O)OC(Cc2ccc(OCc3ccccc3)cc2)C(=O)N(C)C(CC(C)C)C(=O)OC(C)C(=O)N1C [PF1022-201, cyclo-(L-MeLeu-D-Lac-L-MeLeu-D-TYRA(OBn))2]
Degree of effects ([3]; 0.1 mg/kg): 1
Degree of effects ([3]; 0.25 mg/kg): 3

CC(C)C[C@H]1C(=O)O[C@H](Cc2ccc(OC(C)(C)C)cc2)C(=O)N(C)[C@@H](CC(C)C)C(=O)O[C@H](C)C(=O)N(C)[C@@H](CC(C)C)C(=O)O[C@H](Cc2ccccc2)C(=O)N(C)[C@@H](CC(C)C)C(=O)O[C@H](C)C(=O)N1C [PF1022-215, cyclo-(L-MeLeu-D-PhLac-L-MeLeu-D-Lac-L-MeLeu-D-TYRA(O-t-Bu)-L-MeLeu-D-Lac)]
Degree of effects ([3]; 0.25 mg/kg): 3
% Elimination ([4]; single oral dose 1.0 mg/kg): 37%
% Elimination ([4]; single oral dose 2.0 mg/kg): 98%

CC(C)C[C@@H]1NC(=O)[C@@H](C)OC(=O)[C@H](CC(C)C)N(C)C(=O)[C@@H](Cc2ccccc2)OC(=O)[C@H](CC(C)C)NC(=O)[C@@H](C)OC(=O)[C@H](CC(C)C)N(C)C(=O)[C@@H](Cc2ccccc2)OC1=O [PF1022-219, cyclo-(L-MeLeu-D-Lac-L-Leu-D-PhLac)2]
Number of remaining worms (average value ± SD) [1]: 2084.5
% Effectiveness [1]: 0%
Degree of effects [2]: 3

CC(C)C[C@H]1C(=O)O[C@H](C(C)C)C(=O)N(C)[C@@H](CC(C)C)C(=O)O[C@H](Cc2ccccc2)C(=O)N(C)[C@@H](CC(C)C)C(=O)O[C@H](C(C)C)C(=O)N(C)[C@@H](CC(C)C)C(=O)O[C@H](Cc2ccccc2)C(=O)N1C [cyclo(L-MeLeu-D-VALA-L-MeLeu-D-PhLac)2]
ring closure, isolated yield ([5]; from H-MeLeu-dVALA-MeLeu-dPhLac-MeLeu-dVALA-MeLeu-dPhLac-OH, EDCI.HCl/HOBt/NMM/LiCl/KCl/NaCl/CsCl, 0.9 mM, 25.0 °C): 56.5%

CC(C)C[C@H]1C(=O)O[C@H](C)C(=O)N(C)[C@@H](CC(C)C)C(=O)O[C@H](C)C(=O)N(C)[C@@H](CC(C)C)C(=O)O[C@H](C)C(=O)N(C)[C@@H](CC(C)C)C(=O)O[C@H](C)C(=O)N1C [cyclo-(L-MeLeu-D-Lac-)4]
ring closure, isolated yield ([5]; from H-MeLeu-dLac-MeLeu-dLac-MeLeu-dLac-MeLeu-dLac-OH, EDCI.HCl/HOBt/NMM/KCl/CsCl, 1.0 mM, 3 steps): 86%

CC(C)C[C@H]1C(=O)O[C@H](Cc2ccc(OCc3ccccc3)cc2)C(=O)N(C)[C@@H](CC(C)C)C(=O)O[C@H](C)C(=O)N(C)[C@@H](CC(C)C)C(=O)O[C@H](Cc2ccc(OCc3ccccc3)cc2)C(=O)N(C)[C@@H](CC(C)C)C(=O)O[C@H](C)C(=O)N1C [cyclo-(L-MeLeu-D-Lac-L-MeLeu-D-TYRA(OBn))2]
ring closure, isolated yield ([5]; from H-MeLeu-dLac-MeLeu-dTYRA(OBn)-MeLeu-dLac-MeLeu-dTYRA(OBn)-OH, EDCI.HCl/HOBt/NMM/LiCl/NaCl/KCl/CsCl, 0.66 mM, 25.0 °C): 60.5%
